Values quoted from earlier work, collected in US20050249806A1, “Combination of proton pump inhibitor, buffering agent, and nonsteroidal anti-inflammatory drug” (Santarus, Inc., priority 2004, published 2005).

Conditions: pharmacokinetic half-life

SMILES | half-life
CCc1cccc2c3c([nH]c12)C(CC)(CC(=O)O)OCC3 (stereo not shown) [etodolac] | about 7 hours
O=C(c1ccccc1)c1ccc2n1CCC2C(=O)O (stereo not shown) [ketorolac] | 8 to 9 h
Cc1cccc(Nc2ccccc2C(=O)O)c1C [mefenamic acid] | up to 4 hours
COc1ccc2cc(CCC(C)=O)ccc2c1 [nabumetone] | 22 to 30 h

More lines, now with the values ahead:

half-life | SMILES
about 6 hours | CC(C(=O)O)c1ccc(-c2ccccc2)c(F)c1 (stereo not shown) [flurbiprofen]
42 to 50 h | O=C(O)CCc1nc(-c2ccccc2)c(-c2ccccc2)o1 [oxaprozin]

Conditions: not given

water solubility | SMILES
poor water solubility | COc1ccc2[nH]c([S+]([O-])Cc3ncc(C)c(OC)c3C)nc2c1 (stereo not shown) [omeprazole]
